Key:
GST-Bcl-2 = GST-Bcl-2 (Homo sapiens, UniProt P10415); test: TR-FRET Bcl-2 binding assay (F-Bak peptide probe); details: GST-Bcl-2 1 nM, F-Bak peptide probe 100 nM, Tb-anti-GST 1 nM; Wang's equation; '<' = below limit of detection
Protocol: Determination of the utility of compounds of this invention as binders to and inhibitors of anti-apoptotic Bcl-2 proteins was performed using the Time Resolved-Fluorescence Resonance Energy Transfer (TR-FRET) Assay. Tb-anti-GST antibody was purchased from Invitrogen (Catalog No. PV4216).
Representative compounds were serially diluted in dimethyl sulfoxide (DMSO) starting at 50 μM (2× starting concentration; 10% DMSO) and 10 μL were transferred into a 384-well plate. The samples are then mixed on a shaker for 1 minute and incubated for an additional 3 hours at room temperature. For each assay, the probe/antibody and protein/probe/antibody were included on each assay plate as negative and positive controls, respectively. Fluorescence was measured on the Envision (Perkin Elmer) using a 340/35 nm excitation filter and 520/525 (F-Bak peptide) and 495/510 nm (Tb-labeled […] antibody) emission filters. Dissociation constants (Ki) are shown in TABLE 2 below and were determined using Wang's equation (Wang Z.-X., An Exact Mathematical Expression For Describing Competitive Binding Of Two Different Ligands To A Protein Molecule. FEBS Lett. 1995, 360:111-4).
The samples were then mixed on a shaker for 1 minute and incubated for an additional 3 hours at room temperature. For each assay, the probe/antibody and protein/probe/antibody were included on each assay plate as negative and positive controls, respectively. Fluorescence was measured on the Envision (Perkin Elmer) using a 340/35 nm excitation filter and 520/525 (F-Bak peptide) and 495/510 nm (Tb-labeled anti-Histidine antibody) emission filters.
Inhibition constants (Ki) for compounds were determined using Wang's equation (Wang Zx. An Exact Mathematical Expression For Describing Competitive Binding Of Two Different Ligands To A Protein Molecule. FEBS Lett. 1995, 360:111-4).
The inhibition constant (Ki) is the dissociation constant of an enzyme-inhibitor complex or a protein/small molecule complex, wherein the small molecule is inhibiting binding of one protein to another protein or peptide. So a large Ki value indicates a low binding affinity and a small Ki value indicates a high binding affinity. […] The compounds are therefore expected to have utility in treatment of diseases during which anti-apoptotic Bcl-2 protein is expressed. Biological Data

RS4;11 cells = test: RS4;11 cell viability assay (CellTiter Glo); type: cell-based; details: 10% human serum, 48 hours
From the text: The acute lymphoblastic leukemia (ALL) cell line RS4;11 was used as the primary human cell line to assess the cellular activity of Bcl-2 selective agents in vitro and their efficacy in vivo. Previous studies have shown by BH3 profiling, a mitochondrial assay that classifies blocks in the intrinsic apoptotic pathway, that RS4;11 cells were highly dependant on BCL-2 for survival and sensitive to the Bcl-2 family member inhibitor ABT-737 (Blood, 2008, Vol. 111, 2300-2309).
RS4;11 cells were cultured in RPMI-1640 supplemented with 2 mM L-glutamine, 10% FBS, 1 mM sodium pyruvate, 2 mM HEPES, 1% penicillin/streptomycin (Invitrogen), 4.5 g/L glucose and maintained at 37 C containing 5% CO2. To test for the cellular activity of compounds in vitro, cells were treated at 50,000 cells per well in 96-well microtiter plates in the presence of 10% human serum for 48 hours in a humidified chamber with 5% CO2. Cell cytotoxicity EC50 values were assessed using CellTiter Glo (Promega) according to the manufacturer's recommendations. The EC50 values were determined as a percentage of viable cells following treatment compared to the untreated control cells.

Chain of GST-Bcl-2 (P10415 whole entry): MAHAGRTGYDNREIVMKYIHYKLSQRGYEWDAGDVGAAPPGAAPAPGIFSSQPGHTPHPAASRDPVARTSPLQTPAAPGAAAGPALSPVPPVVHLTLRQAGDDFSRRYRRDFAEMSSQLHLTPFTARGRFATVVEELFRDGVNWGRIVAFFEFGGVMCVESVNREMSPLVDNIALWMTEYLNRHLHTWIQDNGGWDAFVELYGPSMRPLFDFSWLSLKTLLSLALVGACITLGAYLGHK

SMILES: CC1(C)CCC(CN2CCN(c3ccc(C(=O)NS(=O)(=O)c4ccc(NCC5(CO)COC5)c([N+](=O)[O-])c4)c(Oc4cnc5[nH]ccc5c4)c3)CC2)=C(c2ccc(Cl)cc2)C1 [Example 11, 4-(4-{[2-(4-chlorophenyl)-4,4-dimethylcyclohex-1-en-1-yl]methyl}piperazin-1-yl)-N-{[4-({[3-(hydroxymethyl)oxetan-3-yl]methyl}amino)-3-nitrophenyl]sulfonyl}-2-(1H-pyrrolo[2,3-b]pyridin-5-yloxy)benzamide]
- Ki (GST-Bcl-2): < 0.0001 µM
- EC50 (RS4;11 cells): 0.015 µM

SMILES: CC1(C)CCC(CN2CCN(c3ccc(C(=O)NS(=O)(=O)c4ccc(NCC5CC(F)(F)C5)c([N+](=O)[O-])c4)c(Oc4cnc5[nH]ccc5c4)c3)CC2)=C(c2ccc(Cl)cc2)C1 [Example 28, 4-(4-{[2-(4-chlorophenyl)-4,4-dimethylcyclohex-1-en-1-yl]methyl}piperazin-1-yl)-N-[(4-{[(3,3-difluorocyclobutyl)methyl]amino}-3-nitrophenyl)sulfonyl]-2-(1H-pyrrolo[2,3-b]pyridin-5-yloxy)benzamide]
- Ki (GST-Bcl-2): < 0.0001 µM
- EC50 (RS4;11 cells): 0.12 µM

SMILES: CC1(C)CCC(CN2CCN(c3ccc(C(=O)NS(=O)(=O)c4ccc(NCC5CCN(S(=O)(=O)C(F)(F)F)CC5)c([N+](=O)[O-])c4)c(Oc4cnc5[nH]ccc5c4)c3)CC2)=C(c2ccc(Cl)cc2)C1 [Example 29, 4-(4-{[2-(4-chlorophenyl)-4,4-dimethylcyclohex-1-en-1-yl]methyl}piperazin-1-yl)-N-({3-nitro-4-[({1-[(trifluoromethyl)sulfonyl]piperidin-4-yl}methyl)amino]phenyl}sulfonyl)-2-(1H-pyrrolo[2,3-b]pyridin-5-yloxy)benzamide]
- Ki (GST-Bcl-2): < 0.0001 µM
- EC50 (RS4;11 cells): 0.057 µM

SMILES: CC1(C)CCC(CN2CCN(c3ccc(C(=O)NS(=O)(=O)c4ccc(NCC5CCN(S(C)(=O)=O)CC5)c([N+](=O)[O-])c4)c(Oc4cnc5[nH]ccc5c4)c3)CC2)=C(c2ccc(Cl)cc2)C1 [Example 30, 4-(4-{[2-(4-chlorophenyl)-4,4-dimethylcyclohex-1-en-1-yl]methyl}piperazin-1-yl)-N-{[4-({[1-(methylsulfonyl)piperidin-4-yl]methyl}amino)-3-nitrophenyl]sulfonyl}-2-(1H-pyrrolo[2,3-b]pyridin-5-yloxy)benzamide]
- Ki (GST-Bcl-2): < 0.0001 µM
- EC50 (RS4;11 cells): 0.027 µM

SMILES: CC1(C)CCC(CN2CCN(c3ccc(C(=O)NS(=O)(=O)c4ccc(NCC5CC[S+]([O-])CC5)c([N+](=O)[O-])c4)c(Oc4cnc5[nH]ccc5c4)c3)CC2)=C(c2ccc(Cl)cc2)C1 (stereo not shown) [Example 32, 4-(4-{[2-(4-chlorophenyl)-4,4-dimethylcyclohex-1-en-1-yl]methyl}piperazin-1-yl)-N-[(3-nitro-4-{[(1-oxidotetrahydro-2H-thiopyran-4-yl)methyl]amino}phenyl)sulfonyl]-2-(1H-pyrrolo[2,3-b]pyridin-5-yloxy)benzamide]
- Ki (GST-Bcl-2): < 0.0001 µM
- EC50 (RS4;11 cells): 0.043 µM

SMILES: CC1(C)CCC(CN2CCN(c3ccc(C(=O)NS(=O)(=O)c4ccc(NC[C@H]5CCOC(C)(C)C5)c([N+](=O)[O-])c4)c(Oc4cnc5[nH]ccc5c4)c3)CC2)=C(c2ccc(Cl)cc2)C1 [Example 33, 4-(4-{[2-(4-chlorophenyl)-4,4-dimethylcyclohex-1-en-1-yl]methyl}piperazin-1-yl)-N-{[4-({[(4S)-2,2-dimethyltetrahydro-2H-pyran-4-yl]methyl}amino)-3-nitrophenyl]sulfonyl}-2-(1H-pyrrolo[2,3-b]pyridin-5-yloxy)benzamide]
- Ki (GST-Bcl-2): < 0.0001 µM
- EC50 (RS4;11 cells): 0.044 µM

SMILES: CC1(C)CCC(CN2CCN(c3ccc(C(=O)NS(=O)(=O)c4ccc(NCC5(C)COC5)c([N+](=O)[O-])c4)c(Oc4cnc5[nH]ccc5c4)c3)CC2)=C(c2ccc(Cl)cc2)C1 [Example 38, 4-(4-{[2-(4-chlorophenyl)-4,4-dimethylcyclohex-1-en-1-yl]methyl}piperazin-1-yl)-N-[(4-{[(3-methyloxetan-3-yl)methyl]amino}-3-nitrophenyl)sulfonyl]-2-(1H-pyrrolo[2,3-b]pyridin-5-yloxy)benzamide]
- Ki (GST-Bcl-2): < 0.0001 µM
- EC50 (RS4;11 cells): 0.03 µM

SMILES: COC1(CNc2ccc(S(=O)(=O)NC(=O)c3ccc(N4CCN(CC5=C(c6ccc(Cl)cc6)CC(C)(C)CC5)CC4)cc3Oc3cnc4[nH]ccc4c3)cc2[N+](=O)[O-])COCCOC1 [Example 40, 4-(4-{[2-(4-chlorophenyl)-4,4-dimethylcyclohex-1-en-1-yl]methyl}piperazin-1-yl)-N-[(4-{[(6-methoxy-1,4-dioxepan-6-yl)methyl]amino}-3-nitrophenyl)sulfonyl]-2-(1H-pyrrolo[2,3-b]pyridin-5-yloxy)benzamide]
- Ki (GST-Bcl-2): < 0.0001 µM
- EC50 (RS4;11 cells): 0.076 µM

SMILES: CC1(C)CCC(CN2CCN(c3ccc(C(=O)NS(=O)(=O)c4ccc(NC[C@H]5C[C@H](C#N)C5)c([N+](=O)[O-])c4)c(Oc4cnc5[nH]ccc5c4)c3)CC2)=C(c2ccc(Cl)cc2)C1 [Example 41, 4-(4-{[2-(4-chlorophenyl)-4,4-dimethylcyclohex-1-en-1-yl]methyl}piperazin-1-yl)-N-[(4-{[(trans-3-cyanocyclobutyl)methyl]amino}-3-nitrophenyl)sulfonyl]-2-(1H-pyrrolo[2,3-b]pyridin-5-yloxy)benzamide]
- Ki (GST-Bcl-2): < 0.0001 µM
- EC50 (RS4;11 cells): 0.047 µM

SMILES: CC1(C)CCC(CN2CCN(c3ccc(C(=O)NS(=O)(=O)c4ccc(NC[C@H]5C[C@@H](C#N)C5)c([N+](=O)[O-])c4)c(Oc4cnc5[nH]ccc5c4)c3)CC2)=C(c2ccc(Cl)cc2)C1 [Example 42, 4-(4-{[2-(4-chlorophenyl)-4,4-dimethylcyclohex-1-en-1-yl]methyl}piperazin-1-yl)-N-[(4-{[(cis-3-cyanocyclobutyl)methyl]amino}-3-nitrophenyl)sulfonyl]-2-(1H-pyrrolo[2,3-b]pyridin-5-yloxy)benzamide]
- Ki (GST-Bcl-2): < 0.0001 µM
- EC50 (RS4;11 cells): 0.056 µM

SMILES: CC1(C)CCC(CN2CCN(c3ccc(C(=O)NS(=O)(=O)c4ccc(NCC5CCS(=O)(=O)CC5)c([N+](=O)[O-])c4)c(Oc4cnc5[nH]ccc5c4)c3)CC2)=C(c2ccc(Cl)cc2)C1 [Example 43, 4-(4-{[2-(4-chlorophenyl)-4,4-dimethylcyclohex-1-en-1-yl]methyl}piperazin-1-yl)-N-[(4-{[(1,1-dioxidotetrahydro-2H-thiopyran-4-yl)methyl]amino}-3-nitrophenyl)sulfonyl]-2-(1H-pyrrolo[2,3-b]pyridin-5-yloxy)benzamide]
- Ki (GST-Bcl-2): < 0.0001 µM
- EC50 (RS4;11 cells): 0.031 µM

SMILES: C[C@H]1CO[C@@H](CNc2ccc(S(=O)(=O)NC(=O)c3ccc(N4CCN(CC5=C(c6ccc(Cl)cc6)CC(C)(C)CC5)CC4)cc3Oc3cnc4[nH]ccc4c3)cc2[N+](=O)[O-])CO1 [Example 45, 4-(4-{[2-(4-chlorophenyl)-4,4-dimethylcyclohex-1-en-1-yl]methyl}piperazin-1-yl)-N-{[4-({[(2S,5S)-5-methyl-1,4-dioxan-2-yl]methyl}amino)-3-nitrophenyl]sulfonyl}-2-(1H-pyrrolo[2,3-b]pyridin-5-yloxy)benzamide]
- Ki (GST-Bcl-2): < 0.0001 µM
- EC50 (RS4;11 cells): 0.019 µM

SMILES: CC(=O)N1CCC(CNc2ccc(S(=O)(=O)NC(=O)c3ccc(N4CCN(CC5=C(c6ccc(Cl)cc6)CC(C)(C)CC5)CC4)cc3Oc3cnc4[nH]ccc4c3)cc2[N+](=O)[O-])CC1 [Example 47, N-[(4-{[(1-acetylpiperidin-4-yl)methyl]amino}-3-nitrophenyl)sulfonyl]-4-(4-{[2-(4-chlorophenyl)-4,4-dimethylcyclohex-1-en-1-yl]methyl}piperazin-1-yl)-2-(1H-pyrrolo[2,3-b]pyridin-5-yloxy)benzamide]
- Ki (GST-Bcl-2): < 0.0001 µM
- EC50 (RS4;11 cells): 0.014 µM

SMILES: CC1(C)CCC(CN2CCN(c3ccc(C(=O)NS(=O)(=O)c4ccc(NCC5COCCOC5)c([N+](=O)[O-])c4)c(Oc4cnc5[nH]ccc5c4)c3)CC2)=C(c2ccc(Cl)cc2)C1 [Example 51, 4-(4-{[2-(4-chlorophenyl)-4,4-dimethylcyclohex-1-en-1-yl]methyl}piperazin-1-yl)-N-({4-[(1,4-dioxepan-6-ylmethyl)amino]-3-nitrophenyl}sulfonyl)-2-(1H-pyrrolo[2,3-b]pyridin-5-yloxy)benzamide]
- Ki (GST-Bcl-2): < 0.0001 µM
- EC50 (RS4;11 cells): 0.039 µM
